Results on six molecules are retold here after patent EP2326172B1, “ANTIFUNGAL AGENTS” (Scynexis, Inc., priority 2008, dated 2010).

In the experiment the target is T1, glucan synthase (GS) (Candida albicans, UniProt O13428).
T1 construct: Extraction of GS activity from membranes was performed at a protein concentration of 5 mg/mL in extraction buffer; endogenous in cells; host or cells: Candida albicans MY1055 (membrane fraction, detergent extract, product entrapment)
Briefly: Glucan synthase inhibition (polymerization assay, 96-well, 3H-UDPG incorporation). The class given is biochemical. To be noted: glucan synthase prepared from Candida albicans MY1055; 60 min incubation at 22°C; read-out: Candida Albicans GS IC50 (ng/mL) (converted). On the procedure: The in vitro evaluation of glucan synthase inhibitory activity of compounds was measured in a polymerization assay in 96-well format. Each well contained 100 µL of ^3H-UDPG at 0.5 mM (6000 to 8000 dpm/nmol), 50 mM HEPES pH 7.5 (Sigma), 10% w/v glycerol (Sigma), 1.5 mg/mL bovine serum albumin (Sigma A 9647. Lot 44H0190), 25 mM KF (Fisher), 1 mM EDTA (Gibco ULTRAPURE), 25 µM GTP-γ-S, enzyme sufficient to give 3 to 6 nmoles incorporation during the 60 min incubation at 22°C, and test compound added from wells in 3-fold serial dilutions in 100% DMSO (1 µL/well). The reaction was stopped by the addition of 100 µL of 20% trichloroacetic acid. Plates were chilled for a minimum of 10 min, and precipitated glucan collected by filtration on GF/C plates (Packard UNIFILTER®-96), washed with 5 cycles of water (about 1 mL/well each cycle) using a Packard FILTERMATE HARVESTER. 40 µL/well scintillation fluid (Packard ULTIMA GOLD TM-XR) was added and the sealed plates counted in a WALLAC BETA counter in top-counting mode at an efficiency of approximately 40%.
Stock solutions were stored at 10 mg/mL in DMSO at -20°C. For each new enzyme preparation, the initial titration performed started at 1 mg/mL, which was prepared by making a 10-fold dilution in DMSO (5 µL to 50 µL). 40 µL of this stock was placed in column 12 of a round-bottomed 96-well microtiter plate. 40 µL DMSO was added to columns 1 to 11 in the same row and ten 3-fold serial dilutions performed, by transferring 20 µL from column 12 to column 11 etc., with 4 mixings before each transfer. No test compound was transferred to from column 2 to column 1. Duplicate aliquots of 1 µL of all 12 dilutions were then transferred to the side walls of a 96-well Bioblock 1.1 mL plate (Fisher brand) to create two rows.
Graphs of the primary data were created in PRISM software (the average of two determinations) using PRISM's curve fitting program (sigmoidal dose response non-linear regression). The amount of compound required to inhibit glucan synthase activity by 50% in this assay (IC50 - ng/mL) was calculated.
Routine analysis was performed with glucan synthase (GS) prepared from Candida albicans MY1055 by the following procedure: MY1055 was grown in 10 liters YPD medium (10 g yeast extract, 20 g tryptone, 20 g glucose per liter) with vigorous shaking at 30°C, to early stationary phase. Cells were harvested by centrifugation, the pellet was washed and frozen at -70°C until breakage. Thawed pellets were shaken with an equal volume of breakage buffer (50 mM HEPES pH 7.4, 10% glycerol, 1 mM EDTA, 1 mM PMSF, 1mM DTT) and 4 times their weight of 0.5 mm acid washed glass beads for 2 hours at 4°C. Extent of breakage was assessed visually at 40x magnification. After low speed centrifugation to remove cell debris, the supernatant was centrifuged at 100,000 x g for 60 min. to separate membranes plus ribosomes from cytoplasmic components. Membranes were further washed two additional times with breakage buffer using the same centrifugation conditions and finally suspended in breakage buffer at 25 to 30 mg/mL protein (Biorad) for storage at -70°C. Extraction of GS activity from membranes was performed at a protein concentration of 5 mg/mL in extraction buffer (50mM NaPO4 pH 7.5, 0.1 M KCl, 0.1M Na citrate, 20% glycerol, 5 µM GTP-γ-S, 1mM DTT, 1 mM PMSF, 3 µg/mL pepstatin) plus 0.25% W1 by gentle mixing at 4°C for 60 min, followed by centrifugation at 100,000 x g for 60 min. After centrifugation, clear supernatant was removed from a pellet consisting of a hard layer usually with small amounts of gelatinous unextracted membranes above it.
Trapping was initiated immediately by 5-fold dilution in trapping buffer (50 mM HEPES pH 7.5, 10 mM KF, 1 mM EDTA, 2 mg/mL BSA) plus 2.5 mM UDPG and 10µM GTP-γ-S. After incubation at 25°C for 60 to 90 minutes, glucan was harvested by low speed centrifugation (3,000 x g, 10 min). […]

T1 sequence (O13428 1-1897): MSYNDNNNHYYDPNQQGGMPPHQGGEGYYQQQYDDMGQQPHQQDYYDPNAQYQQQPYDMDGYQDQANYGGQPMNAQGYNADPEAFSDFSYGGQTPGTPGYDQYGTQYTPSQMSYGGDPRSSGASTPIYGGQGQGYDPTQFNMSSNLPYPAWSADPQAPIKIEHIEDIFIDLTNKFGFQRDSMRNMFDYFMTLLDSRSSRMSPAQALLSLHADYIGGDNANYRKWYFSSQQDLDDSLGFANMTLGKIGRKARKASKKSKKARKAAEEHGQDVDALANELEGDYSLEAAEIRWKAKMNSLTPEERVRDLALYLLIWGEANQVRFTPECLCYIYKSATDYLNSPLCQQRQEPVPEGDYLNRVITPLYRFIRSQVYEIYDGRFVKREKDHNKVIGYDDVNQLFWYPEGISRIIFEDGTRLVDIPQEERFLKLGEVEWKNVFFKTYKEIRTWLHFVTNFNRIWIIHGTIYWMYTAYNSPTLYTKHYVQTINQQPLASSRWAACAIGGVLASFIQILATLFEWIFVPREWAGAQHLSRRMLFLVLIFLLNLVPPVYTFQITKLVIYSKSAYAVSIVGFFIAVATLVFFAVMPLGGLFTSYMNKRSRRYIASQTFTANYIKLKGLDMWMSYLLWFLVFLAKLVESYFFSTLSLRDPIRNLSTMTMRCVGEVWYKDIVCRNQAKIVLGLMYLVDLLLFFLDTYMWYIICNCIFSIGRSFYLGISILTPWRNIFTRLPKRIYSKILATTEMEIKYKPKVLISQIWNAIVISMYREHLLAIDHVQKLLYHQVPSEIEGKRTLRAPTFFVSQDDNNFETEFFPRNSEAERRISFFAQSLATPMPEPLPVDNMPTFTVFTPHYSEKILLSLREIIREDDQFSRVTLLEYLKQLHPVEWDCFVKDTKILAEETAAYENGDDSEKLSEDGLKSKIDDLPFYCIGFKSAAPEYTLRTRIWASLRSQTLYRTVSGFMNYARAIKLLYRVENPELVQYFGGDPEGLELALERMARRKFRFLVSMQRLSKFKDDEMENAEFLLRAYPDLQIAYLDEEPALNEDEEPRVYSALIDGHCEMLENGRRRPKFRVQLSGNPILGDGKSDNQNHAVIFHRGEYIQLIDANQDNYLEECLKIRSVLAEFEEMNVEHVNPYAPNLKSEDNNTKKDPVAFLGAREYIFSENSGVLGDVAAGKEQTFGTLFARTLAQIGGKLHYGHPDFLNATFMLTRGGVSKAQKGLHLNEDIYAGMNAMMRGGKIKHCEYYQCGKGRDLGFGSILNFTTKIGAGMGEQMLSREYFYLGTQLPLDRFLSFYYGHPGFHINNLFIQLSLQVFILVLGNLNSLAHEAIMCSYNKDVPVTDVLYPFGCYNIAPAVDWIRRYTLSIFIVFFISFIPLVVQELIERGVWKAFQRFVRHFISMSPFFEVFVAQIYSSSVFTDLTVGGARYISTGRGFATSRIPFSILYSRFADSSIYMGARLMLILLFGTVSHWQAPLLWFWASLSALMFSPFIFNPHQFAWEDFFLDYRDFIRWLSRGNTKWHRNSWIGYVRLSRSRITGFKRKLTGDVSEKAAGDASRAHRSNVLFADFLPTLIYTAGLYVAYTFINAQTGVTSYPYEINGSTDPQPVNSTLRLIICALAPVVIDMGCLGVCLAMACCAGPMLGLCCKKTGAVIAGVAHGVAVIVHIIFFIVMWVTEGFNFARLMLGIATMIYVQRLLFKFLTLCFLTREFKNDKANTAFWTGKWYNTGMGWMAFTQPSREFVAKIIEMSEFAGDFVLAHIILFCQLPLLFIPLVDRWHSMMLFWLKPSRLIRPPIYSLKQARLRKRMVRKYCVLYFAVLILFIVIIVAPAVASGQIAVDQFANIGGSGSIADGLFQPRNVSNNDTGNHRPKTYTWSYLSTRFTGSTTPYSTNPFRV
T1 sequence (O42825 1-195 partner limits assumed): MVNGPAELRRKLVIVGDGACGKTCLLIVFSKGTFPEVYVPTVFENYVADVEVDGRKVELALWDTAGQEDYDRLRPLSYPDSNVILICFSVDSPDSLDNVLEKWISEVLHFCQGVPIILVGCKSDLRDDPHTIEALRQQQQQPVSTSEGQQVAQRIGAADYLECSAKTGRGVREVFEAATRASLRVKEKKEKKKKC

Turning to `CC(C)[C@@H](C)[C@@]1(C)CC[C@]2(C)[C@H]3CC[C@@H]4[C@@]5(COC[C@@]4(C)[C@@H](OC[C@](C)(N)C(C)C)[C@H](n4ncnc4-c4cccnc4)C5)C3=CC[C@@]2(C)[C@@H]1C(=O)O` [Example 182, (1S,4aR,6aS,7R,8R,10aR,10bR,12aR,14R,15R)-15-[[(2R)-2-amino-2,3-dimethylbutyl]oxy]-8-[(1R)-1,2-dimethylpropyl]-14-[5-(3-pyridinyl)-1H-1,2,4-triazol-1-yl]-1,6,6a,7,8,9,10,10a,10b,11,12,12a-dodecahydro-1,6a,8,10a-tetramethyl-4H-1,4a-propano-2H-phenanthro[1,2-c]pyran-7-carboxylic acid], the IC50 was 5.59 nM. Next, `CC(C)[C@@H](C)[C@@]1(C)CC[C@]2(C)[C@H]3CC[C@@H]4[C@@]5(COC[C@@]4(C)[C@@H](OC[C@](C)(N)C(C)C)[C@H](n4ncnc4-c4ccncn4)C5)C3=CC[C@@]2(C)[C@@H]1C(=O)O` [Example 190, (1S,4aR,6aS,7R,8R,10aR,10bR,12aR,14R,15R)-15-[[(2R)-2-amino-2,3-dimethylbutyl]oxy]-8-[(1R)-1,2-dimethylpropyl]-14-[5-(4-pyrimidinyl)-1H-1,2,4-triazol-1-yl]-1,6,6a,7,8,9,10,10a,10b,11,12,12a-dodecahydro-1,6a,8,10a-tetramethyl-4H-1,4a-propano-2H-phenanthro[1,2-c]pyran-7-carboxylic acid]: 4.18 nM. Next, `CC(C)[C@@H](C)[C@@]1(C)CC[C@]2(C)[C@H]3CC[C@@H]4[C@@]5(COC[C@@]4(C)[C@@H](OC[C@](C)(N)C(C)(C)C)[C@H](n4ncnc4-c4ccnnc4)C5)C3=CC[C@@]2(C)[C@@H]1C(=O)O` [Example 202, (1S,4aR,6aS,7R,8R,10aR,10bR,12aR,14R,15R)-15-[[(2R)-2-amino-2,3,3-trimethylbutyl]oxy]-8-[(1R)-1,2-dimethylpropyl]-14-[5-(4-pyridazinyl)-1H-1,2,4-triazol-1-yl]-1,6,6a,7,8,9,10,10a,10b,11,12,12a-dodecahydro-1,6a,8,10a-tetramethyl-4H-1,4a-propano-2H-phenanthro[1,2-c]pyran-7-carboxylic acid]: 0.274 nM. In the case of `CC(C)[C@@H](C)[C@@]1(C)CC[C@]2(C)[C@H]3CC[C@@H]4[C@@]5(COC[C@@]4(C)[C@@H](OC[C@](C)(N)C(C)(C)C)[C@H](n4ncnc4-c4ccncc4F)C5)C3=CC[C@@]2(C)[C@@H]1C(=O)O` [Example 208, (1S,4aR,6aS,7R,8R,10aR,10bR,12aR,14R,15R)-15-[[(2R)-2-amino-2,3,3-trimethylbutyl]oxy]-8-[(1R)-1,2-dimethylpropyl]-14-[5-(3-fluoro-4-pyridinyl)-1H-1,2,4-triazol-1-yl]-1,6,6a,7,8,9,10,10a,10b,11,12,12a-dodecahydro-1,6a,8,10a-tetramethyl-4H-1,4a-propano-2H-phenanthro[1,2-c]pyran-7-carboxylic acid], the IC50 is 0.936 nM. As to `CC(C)[C@@H](C)[C@@]1(C)CC[C@]2(C)[C@H]3CC[C@@H]4[C@@]5(COC[C@@]4(C)[C@@H](OCC4(N)CCOCC4)[C@H](n4ncnc4-c4ccncn4)C5)C3=CC[C@@]2(C)[C@@H]1C(=O)O` [Example 256, (1S,4aR,6aS,7R,8R,10aR,10bR,12aR,14R,15R)-15-[(4-aminotetrahydro-2H-pyran-4-yl)methoxy]-8-[(1R)-1,2-dimethylpropyl]-14-[5-(4-pyrimidinyl)-1H-1,2,4-triazol-1-yl]-1,6,6a,7,8,9,10,10a,10b,11,12,12a-dodecahydro-1,6a,8,10a-tetramethyl-4H-1,4a-propano-2H-phenanthro[1,2-c]pyran-7-carboxylic acid], the IC50 is 6.84 nM. Under `CC(C)[C@@H](C)[C@@]1(C)CC[C@]2(C)[C@H]3CC[C@@H]4[C@@]5(COC[C@@]4(C)[C@@H](OC[C@](C)(N)C(C)(C)C)[C@H](n4ncnc4-c4ccc[n+]([O-])c4)C5)C3=CC[C@@]2(C)[C@@H]1C(=O)O` [Example 261, (1S,4aR,6aS,7R,8R,10aR,10bR,12aR,14R,15R)-15-[[(2R)-2-amino-2,3,3-trimethylbutyl]oxy]-8-[(1R)-1,2-dimethylpropyl]-14-[5-(1-oxido-3-pyridinyl)-1H-1,2,4-triazol-1-yl]-1,6,6a,7,8,9,10,10a,10b,11,12,12a-dodecahydro-1,6a,8,10a-tetramethyl-4H-1,4a-propano-2H-phenanthro[1,2-c]pyran-7-carboxylic acid] stands 2.68 nM.
